Measurements published in US20130178469A1, “NOVEL ANTIVIRAL AGENTS” (SHANGHAI INSTITUTE OF ORGANIC CHEMISTRY (SIOC), priority 2010, published 2013).
pEC50: −log10 of the molar value.

tested on: HIV-1; experiment: Luciferase Assay with single-round reporter virus (NLXLuc or HIV-Luc); format: cell-based; settings: Human immunodeficiency virus 1
From the text: Infectivity assays using reporter viruses derived from lentiviral vectors capable of a single round of infection were used to determine the activity (EC50) of compounds. The DNA used to generate viruses for infection was the full-length HIV-1 genome which had been envelope-deleted. In addition, a reporter gene (the firefly luciferase gene from Photinus pyralis) was cloned into the nefregion of the HIV backbone for ease of assay readout. […]. Culture supernatants containing VSV-G pseudotyped virions were harvested 64 h post transfection, clarified by centrifugation to remove cell debris, and frozen at −70° C. until use.
293FT cells were plated out at 12000 cells per well in CellView 96-well cell culture plates (Invitrogen) 16 h prior to compound addition. Compounds were preincubated with cells for 4 h at 37° C. prior to the addition of virus sufficient to generate approximately 10000 Luciferase light units (as measured by the Victor Wallace luminometer) upon assaying using the Bright-Glo™ reagent (Promega) according to the manufacturer's instructions at 48 h post infection.
In the tables below, this assay is referred to as NLXLuc or HIV-Luc.

| SMILES | pEC50 |
| --- | --- |
| CN1CCN(c2cc(N3CCCOC3=O)c3nc(C(=O)NCc4ccc(F)cc4)c(O)c(=O)n3c2)CC1 [Example 1.4, N-(4-fluorobenzyl)-3-hydroxy-7-(4-methylpiperazin-1-yl)-4-oxo-9-(2-oxo-1,3-oxazinan-3-yl)-4H-pyrido[1,2-a]pyrimidine-2-carboxamide] | 6.00 to 7.00 |
| CN1CCN(c2cc(N3CCCC3=O)c3nc(C(=O)NCc4ccc(F)cc4)c(O)c(=O)n3c2)CC1 [Example 2.4, 3-Hydroxy-7-(4-methyl-piperazin-1-yl)-4-oxo-9-(2-oxo-pyrrolidin-1-yl)-4H-pyrido[1,2-a]pyrimidine-2-carboxylic acid 4-fluoro-benzylamide] | 6.00 to 7.00 |
| O=C(NCc1ccc(F)cc1)c1nc2c(N3CCNCC3=O)cc(N3CCCC3)cn2c(=O)c1O [Example 4.4, 3-Hydroxy-4-oxo-9-(2-oxo-piperazin-1-yl)-7-pyrrolidin-1-yl-4H-pyrido[1,2-a]pyrimidine-2-carboxylic acid 4-fluoro-benzylamide] | 6.00 to 7.00 |
| CN1CCN(c2cc(N(C)S(C)(=O)=O)c3nc(C(=O)NCc4ccc(F)cc4)c(O)c(=O)n3c2)CC1 [Example 5.4, 3-Hydroxy-9-(methanesulfonyl-methyl-amino)-7-(4-methyl-piperazin-1-yl)-4-oxo-4H-pyrido[1,2-a]pyrimidine-2-carboxylic acid 4-fluoro-benzylamide] | 7.70 to 8.00 |
| CC(C)N1CCN(c2cc(N(C)S(C)(=O)=O)c3nc(C(=O)NCc4ccc(F)cc4)c(O)c(=O)n3c2)CC1 [Example 6.3, Trifluoro-acetate4-[2-(4-fluoro-benzylcarbamoyl)-3-hydroxy-9-(methanesulfonyl-methyl-amino)-4-oxo-4H-pyrido[1,2-a]pyrimidin-7-yl]-1-isopropyl-piperazin-1-ium] | 7.70 to 8.00 |
| CN(C)c1cc(N2CCOC2=O)c2nc(C(=O)NCc3ccc(F)cc3)c(O)c(=O)n2c1 [Example 7.3, 7-(dimethylamino)-N-(4-fluorobenzyl)-3-hydroxy-4-oxo-9-(2-oxooxazolidin-3-yl)-4H-pyrido[1,2-a]pyrimidine-2-carboxamide] | 6.00 to 7.00 |
| CN(C)c1cc(N2CCCOC2=O)c2nc(C(=O)NCc3ccc(F)cc3)c(O)c(=O)n2c1 [Example 8.3, 7-(dimethylamino)-N-(4-fluorobenzyl)-3-hydroxy-4-oxo-9-(2-oxo-1,3-oxazinan-3-yl)-4H-pyrido[1,2-a]pyrimidine-2-carboxamide] | 7.00 to 7.70 |
| CN(C)c1cc(N2CCNCC2=O)c2nc(C(=O)NCc3ccc(F)cc3)c(O)c(=O)n2c1 [Example 9.3, 7-(dimethylamino)-N-(4-fluorobenzyl)-3-hydroxy-4-oxo-9-(2-oxopiperazin-1-yl)-4H-pyrido[1,2-a]pyrimidine-2-carboxamide] | 6.00 to 7.00 |
| O=C(NCc1ccc(F)cc1)c1nc2c(N3CCNCC3=O)cc(N3CCOCC3)cn2c(=O)c1O [Example 10.3, N-(4-fluorobenzyl)-3-hydroxy-7-morpholino-4-oxo-9-(2-oxopiperazin-1-yl)-4H-pyrido[1,2-a]pyrimidine-2-carboxamide] | 6.00 to 7.00 |
| CC1COCCN1c1cc(N2CCNCC2=O)c2nc(C(=O)NCc3ccc(F)cc3)c(O)c(=O)n2c1 (stereo not drawn) [Example 11.3, N-(4-fluorobenzyl)-3-hydroxy-7-(3-methylmorpholino)-4-oxo-9-(2-oxopiperazin-1-yl)-4H-pyrido[1,2-a]pyrimidine-2-carboxamide] | 6.00 to 7.00 |
| O=C(NCc1ccc(F)cc1)c1nc2c(N3CCNCC3=O)cc(N3CCCCC3)cn2c(=O)c1O [Example 12.3, 3-Hydroxy-4-oxo-9-(2-oxo-piperazin-1-yl)-7-piperidin-1-yl-4H-pyrido[1,2-a]pyrimidine-2-carboxylic acid 4-fluoro-benzylamide] | 7.00 to 7.70 |
| CN(CC1CC1)c1cc(N2CCNCC2=O)c2nc(C(=O)NCc3ccc(F)cc3)c(O)c(=O)n2c1 [Example 13.4, 7-(Cyclopropylmethyl-methyl-amino)-3-hydroxy-4-oxo-9-(2-oxo-piperazin-1-yl)-4H-pyrido[1,2-a]pyrimidine-2-carboxylic acid 4-fluoro-benzylamide] | 7.00 to 7.70 |
| CN1CCN(c2cc(N3CCNCC3=O)c3nc(C(=O)NCc4ccc(F)cc4)c(O)c(=O)n3c2)CC1 [Example 14.3, 3-Hydroxy-7-(4-methyl-piperazin-1-yl)-4-oxo-9-(2-oxo-piperazin-1-yl)-4H-pyrido[1,2-a]pyrimidine-2-carboxylic acid 4-fluoro-benzylamide] | 6.00 to 7.00 |
| O=C(NCc1ccc(F)cc1)c1nc2c(N3CCNCC3=O)cc(N3CCNCC3)cn2c(=O)c1O [Example 15.3, 3-Hydroxy-4-oxo-9-(2-oxo-piperazin-1-yl)-7-piperazin-1-yl-4H-pyrido[1,2-a]pyrimidine-2-carboxylic acid 4-fluoro-benzylamide] | 6.00 to 7.00 |
| CN1CCN(c2cc(N3CCOCC3)cn3c(=O)c(O)c(C(=O)NCc4ccc(F)cc4)nc23)C(=O)C1 [Example 16.4, 3-Hydroxy-9-(4-methyl-2-oxo-piperazin-1-yl)-7-morpholin-4-yl-4-oxo-4H-pyrido[1,2-a]pyrimidine-2-carboxylic acid 4-fluoro-benzylamide] | 7.00 to 7.70 |
| CC(C)N1CCN(c2cc(N3CCN(C)CC3)cn3c(=O)c(O)c(C(=O)NCc4ccc(F)cc4)nc23)C1=O [Example 17.4, 3-Hydroxy-9-(3-isopropyl-2-oxo-imidazolidin-1-yl)-7-(4-methyl-piperazin-1-yl)-4-oxo-4H-pyrido[1,2-a]pyrimidine-2-carboxylic acid 4-fluoro-benzylamide] | 7.00 to 7.70 |
| CN1CCN(c2cc(N3CCCCC3=O)c3nc(C(=O)NCc4ccc(F)cc4)c(O)c(=O)n3c2)CC1 [Example 18.4, 3-Hydroxy-7-(4-methyl-piperazin-1-yl)-4-oxo-9-(2-oxo-piperidin-1-yl)-4H-pyrido[1,2-a]pyrimidine-2-carboxylic acid 4-fluoro-benzylamide] | 7.00 to 7.70 |
| O=C(NCc1ccc(F)cc1)c1nc2c(N3CCOC3=O)cc(N3CCNCC3)cn2c(=O)c1O [Example 19.4, 3-Hydroxy-4-oxo-9-(2-oxo-oxazolidin-3-yl)-7-piperazin-1-yl-4H-pyrido[1,2-a]pyrimidine-2-carboxylic acid 4-fluoro-benzylamide] | < 6.00 |
| CN1CCN(c2cc(N3CCOC3=O)c3nc(C(=O)NCc4ccc(F)cc4)c(O)c(=O)n3c2)CC1 [Example 20.4, 3-Hydroxy-7-(4-methyl-piperazin-1-yl)-4-oxo-9-(2-oxo-oxazolidin-3-yl)-4H-pyrido[1,2-a]pyrimidine-2-carboxylic acid 4-fluoro-benzylamide] | 7.00 to 7.70 |
| O=C(NCc1ccc(F)cc1)c1nc2c(N3CCOCC3)cc(N3CCOCC3)cn2c(=O)c1O [Example 21.5, N-(4-fluorobenzyl)-3-hydroxy-7,9-dimorpholino-4-oxo-4H-pyrido[1,2-a]pyrimidine-2-carboxamide] | 6.00 to 7.00 |
| CN1CCN(c2cc(N3CCOCC3)cn3c(=O)c(O)c(C(=O)NCc4ccc(F)cc4)nc23)C1=O [Example 29.2, N-(4-fluorobenzyl)-3-hydroxy-9-(3-methyl-2-oxoimidazolidin-1-yl)-7-morpholino-4-oxo-4H-pyrido[1,2-a]pyrimidine-2-carboxamide] | 7.00 to 7.70 |
| CN1CCN(c2cc(N3CCOCC3)cn3c(=O)c(O)c(C(=O)NCc4ccc(Cl)c(Cl)c4)nc23)C1=O [Example 30, N-(3,4-dichlorobenzyl)-3-hydroxy-9-(3-methyl-2-oxoimidazolidin-1-yl)-7-morpholino-4-oxo-4H-pyrido[1,2-a]pyrimidine-2-carboxamide] | 7.00 to 7.70 |
| CN1CCN(c2cc(N(C)C)cn3c(=O)c(O)c(C(=O)NCc4ccc(F)cc4)nc23)C1=O [Example 31.3, 7-Dimethylamino-3-hydroxy-9-(3-methyl-2-oxo-imidazolidin-1-yl)-4-oxo-4H-pyrido[1,2-a]pyrimidine-2-carboxylic acid 4-fluoro-benzylamide] | 6.00 to 7.00 |
| CC(C)N1CCN(c2cc(N3CCN(C)C3=O)c3nc(C(=O)NCc4ccc(F)cc4)c(O)c(=O)n3c2)CC1 [Example 32.4, 3-Hydroxy-7-(4-isopropyl-piperazin-1-yl)-9-(3-methyl-2-oxo-imidazolidin-1-yl)-4-oxo-4H-pyrido[1,2-a]pyrimidine-2-carboxylic acid 4-fluoro-benzylamide] | 7.70 to 8.00 |
| O=C(NCc1ccc(F)cc1)c1nc2c(N3CCCS3(=O)=O)cc(N3CCNCC3)cn2c(=O)c1O [Example 33, 3-Hydroxy-4-oxo-9-(1,3-propanesultam)-7-piperazin-1-yl-4H-pyrido[1,2-a]pyrimidine-2-carboxylic acid 4-fluoro-benzylamide] | 6.00 to 7.00 |
| Cc1ccc2nc(C(=O)NCc3ccc(F)cc3)c(O)c(=O)n2c1 [drawing 177, reference compound] | < 6.00 |
| Cc1ccc2nc(C(=O)NCc3ccc(Cl)c(Cl)c3)c(O)c(=O)n2c1 [drawing 186, reference compound] | 6.00 to 7.00 |
